Patent US10172830B2, “Pyrazolone compounds having human neutrophil elastase inhibitory properties” (CHIESI FARMACEUTICI S.P.A., priority 2016, dated 2019)
pIC50: −log10 of the molar value.

Target: T1, human neutrophil elastase (HNE) (Homo sapiens, UniProt P08246)
T1 construct: purchased Sigma E8140
T1 sequence (P08246 30-247 limits assumed): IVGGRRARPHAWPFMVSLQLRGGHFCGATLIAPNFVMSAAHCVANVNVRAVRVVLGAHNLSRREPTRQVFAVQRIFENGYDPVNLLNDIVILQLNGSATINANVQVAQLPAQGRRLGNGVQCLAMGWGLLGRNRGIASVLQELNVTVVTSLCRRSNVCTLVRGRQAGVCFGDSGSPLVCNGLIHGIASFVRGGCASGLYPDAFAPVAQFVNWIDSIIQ
Assay: HNE enzyme assay (human neutrophil elastase enzyme activity assay)
Format: biochemical
Details: human leukocyte elastase 0.00072 U/mL; substrate MeOSuc-Ala-Ala-Pro-Val-AMC 100 μM; 25° C. for 30 minutes; at least two separate experiments; read-out: HNE inhibition (HNE enzyme inhibition, IC50 values)
Procedure, shortened: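 Human leukocyte elastase (0.00072 U/mL) with 100 μM MeOSuc-AAPV-AMC in Tris/NaCl/CaCl2/Brij-35 buffer, pH 7.5, 1% DMSO, 30 min at 25 °C; stopped with soybean trypsin inhibitor. AMC fluorescence (380/460 nm) as % inhibition of control; IC50 from dose-response curves, ≥2 experiments.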

Row | SMILES | pIC50
1 | Cc1cc(C[N+](C)(C)C[C@H]2CC[C@H](NC(=O)c3c(-c4ccnn4-c4ccc(C#N)cc4)n(C)n(-c4cccc(C(F)(F)F)c4)c3=O)CC2)no1 [Example 47, (Trans-4-{[2′-(4-cyano-phenyl)-2-methyl-5-oxo-1-(3-trifluoromethyl-phenyl)-2,5-dihydro-1H,2′H-[3,3′]bipyrazolyl-4-carbonyl]-amino}-cyclohexylmethyl)-dimethyl-(5-methyl-isoxazol-3-ylmethyl)-ammonium chloride] | > 9.00
2 | Cn1c(-c2ccnn2-c2ccc(C#N)cc2)c(C(=O)NC(C)(C)c2ncc(C[N+](C)(C)C)o2)c(=O)n1-c1cccc(C(F)(F)F)c1 [Example 48, [2-(1-{[2′-(4-Cyano-phenyl)-2-methyl-5-oxo-1-(3-trifluoromethyl-phenyl)-2,5-dihydro-1H,2′H-[3,3′]bipyrazolyl-4-carbonyl]-amino}-1-methyl-ethyl)-oxazol-5-ylmethyl]-trimethyl-ammonium benzene sulphonate] | > 9.00
3 | Cc1cc(C[N+]2(C)CCN(C(=O)[C@H](C)NC(=O)c3c(-c4ccnn4-c4ccc(C#N)cc4)n(C)n(-c4cccc(C(F)(F)F)c4)c3=O)CC2)no1 [Example 49, 4-((S)-2-{[2′-(4-Cyano-phenyl)-2-methyl-5-oxo-1-(3-trifluoromethyl-phenyl)-2,5-dihydro-1H,2′H-[3,3′]bipyrazolyl-4-carbonyl]-amino}-propionyl)-1-methyl-1-(5-methyl-isoxazol-3-ylmethyl)-piperazin-1-ium chloride] | > 9.00
4 | Cc1cc(C[N+](C)(C)CC(=O)N2CCC(NC(=O)c3c(-c4ccnn4-c4ccc(C#N)cc4)n(C)n(-c4cccc(C(F)(F)F)c4)c3=O)CC2)no1 [Example 50, [2-(4-{[2′-(4-Cyano-phenyl)-2-methyl-5-oxo-1-(3-trifluoromethyl-phenyl)-2,5-dihydro-1H,2′H-[3,3′]bipyrazolyl-4-carbonyl]-amino}-piperidin-1-yl)-2-oxo-ethyl]-dimethyl-(5-methyl-isoxazol-3-ylmethyl)-ammonium chloride] | > 9.00
5 | Cn1c(-c2ccnn2-c2ccc(C#N)cc2)c(C(=O)N[C@H]2C[C@H](C(=O)NCC[N+](C)(C)C)C2)c(=O)n1-c1cccc(C(F)(F)F)c1 [Example 51, {2-[(Trans-3-{[2′-(4-cyano-phenyl)-2-methyl-5-oxo-1-(3-trifluoromethyl-phenyl)-2,5-dihydro-1H,2′H-[3,3′]bipyrazolyl-4-carbonyl]-amino}-cyclobutanecarbonyl)-amino]-ethyl}-trimethyl-ammonium benzene sulphonate] | > 9.00
6 | C[C@H](NC(=O)c1c(-c2ccnn2-c2ccc(C#N)cc2)n(C)n(-c2cccc(C(F)(F)F)c2)c1=O)c1ncc(CC[N+](C)(C)C)o1 [Example 52, {2-[2-((S)-1-{[2′-(4-Cyano-phenyl)-2-methyl-5-oxo-1-(3-trifluoromethyl-phenyl)-2,5-dihydro-1H,2′H-[3,3′]bipyrazolyl-4-carbonyl]-amino}-ethyl)-oxazol-5-yl]-ethyl}-trimethyl-ammonium benzene sulphonate] | 8.00 to 9.00
7 | CC(C)[C@H](NC(=O)c1c(-c2ccnn2-c2ccc(C#N)cc2)n(C)n(-c2cccc(C(F)(F)F)c2)c1=O)c1ncc(C[N+](C)(C)C)o1 [Example 53, [2-((S)-1-{[2′-(4-Cyano-phenyl)-2-methyl-5-oxo-1-(3-trifluoromethyl-phenyl)-2,5-dihydro-1H,2′H-[3,3′]bipyrazolyl-4-carbonyl]-amino}-2-methyl-propyl)-oxazol-5-ylmethyl]-trimethyl-ammonium benzene sulphonate] | > 9.00
8 | Cn1c(-c2ccnn2-c2ccc(C#N)cc2)c(C(=O)N[C@H]2CC[C@H](CNC(=O)C[N+](C)(C)C)CC2)c(=O)n1-c1cccc(C(F)(F)F)c1 [Example 54, {[(Trans-4-{[2′-(4-cyano-phenyl)-2-methyl-5-oxo-1-(3-trifluoromethyl-phenyl)-2,5-dihydro-1H,2′H-[3,3′]bipyrazolyl-4-carbonyl]-amino}-cyclohexylmethyl)-carbamoyl]-methyl}-trimethyl-ammonium benzene sulphonate] | > 9.00
9 | Cn1c(-c2ccnn2-c2ccc(C#N)cc2)c(C(=O)N[C@H]2C[C@H](C(=O)NC3CC[N+](C)(C)CC3)C2)c(=O)n1-c1cccc(C(F)(F)F)c1 [Example 55, 4-[(Trans-3-{[2′-(4-cyano-phenyl)-2-methyl-5-oxo-1-(3-trifluoromethyl-phenyl)-2,5-dihydro-1H,2′H-[3,3′]bipyrazolyl-4-carbonyl]-amino}-cyclobutanecarbonyl)-amino]-1,1-dimethyl-piperidinium benzene sulphonate] | > 9.00
10 | C[C@H](NC(=O)c1c(-c2ccnn2-c2ccc(C#N)cc2)n(C)n(-c2cccc(C(F)(F)F)c2)c1=O)C(=O)N(C)C1CC[N+](C)(C)CC1 [Example 56, 4-[((S)-2-{[2′-(4-Cyano-phenyl)-2-methyl-5-oxo-1-(3-trifluoromethyl-phenyl)-2,5-dihydro-1H,2′H-[3,3′]bipyrazolyl-4-carbonyl]-amino}-propionyl)-methyl-amino]-1,1-dimethyl-piperidinium benzene sulphonate] | > 9.00
11 | Cn1c(-c2ccnn2-c2ccc(C#N)cc2)c(C(=O)NC2(C(=O)NCC[N+](C)(C)C)CCCC2)c(=O)n1-c1cccc(C(F)(F)F)c1 [Example 57, {2-[(1-{[2′-(4-Cyano-phenyl)-2-methyl-5-oxo-1-(3-trifluoromethyl-phenyl)-2,5-dihydro-1H,2′H-[3,3′]bipyrazolyl-4-carbonyl]-amino}-cyclopentanecarbonyl)-amino]-ethyl}-trimethyl-ammonium benzene sulphonate] | > 9.00
12 | Cn1c(-c2ccnn2-c2ccc(C#N)cc2)c(C(=O)N[C@H]2CC[C@H](C(=O)NC3CC[N+](C)(C)CC3)CC2)c(=O)n1-c1cccc(C(F)(F)F)c1 [Example 58, 4-[(4-{[2′-(4-Cyano-phenyl)-2-methyl-5-oxo-1-(3-trifluoromethyl-phenyl)-2,5-dihydro-1H,2′H-[3,3′]bipyrazolyl-4-carbonyl]-amino}-cyclohexanecarbonyl)-amino]-1,1-dimethyl-piperidinium benzene sulphonate] | > 9.00
13 | Cn1c(-c2ccnn2-c2ccc(C#N)cc2)c(C(=O)N[C@H]2CC[C@H](C(=O)OC3CC[N+](C)(C)CC3)CC2)c(=O)n1-c1cccc(C(F)(F)F)c1 [Example 59, 4-(Trans-4-{[2′-(4-cyano-phenyl)-2-methyl-5-oxo-1-(3-trifluoromethyl-phenyl)-2,5-dihydro-1H,2′H-[3,3′]bipyrazolyl-4-carbonyl]-amino}-cyclohexanecarbonyloxy)-1,1-dimethyl-piperidinium benzene sulphonate] | > 9.00
14 | Cn1c(-c2ccnn2-c2ccc(C#N)cc2)c(C(=O)N[C@H]2CC[C@H](C(=O)N3CCC([N+](C)(C)C)CC3)CC2)c(=O)n1-c1cccc(C(F)(F)F)c1 [Example 60, [1-(4-{[2′-(4-Cyano-phenyl)-2-methyl-5-oxo-1-(3-trifluoromethyl-phenyl)-2,5-dihydro-1H,2′H-[3,3′]bipyrazolyl-4-carbonyl]-amino}-cyclohexanecarbonyl)-piperidin-4-yl]-trimethyl-ammonium benzene sulphonate] | > 9.00
15 | CN(CC[N+](C)(C)C)C(=O)C1(NC(=O)c2c(-c3ccnn3-c3ccc(C#N)cc3)n(C)n(-c3cccc(C(F)(F)F)c3)c2=O)CCCC1 [Example 61, {2-[(1-{[2′-(4-Cyano-phenyl)-2-methyl-5-oxo-1-(3-trifluoromethyl-phenyl)-2,5-dihydro-1H,2′H-[3,3′]bipyrazolyl-4-carbonyl]-amino}-cyclopentanecarbonyl)-methyl-amino]-ethyl}-trimethyl-ammonium benzene sulphonate] | > 9.00
16 | Cn1c(-c2ccnn2-c2ccc(C#N)cc2)c(C(=O)N[C@H]2CC[C@H](OC(=O)C[N+](C)(C)C)CC2)c(=O)n1-c1cccc(C(F)(F)F)c1 [Example 62, (Trans-4-{[2′-(4-cyano-phenyl)-2-methyl-5-oxo-1-(3-trifluoromethyl-phenyl)-2,5-dihydro-1H,2′H-[3,3′]bipyrazolyl-4-carbonyl]-amino}-cyclohexyloxycarbonylmethyl)-trimethyl-ammonium benzene sulphonate] | > 9.00
17 | Cn1c(-c2ccnn2-c2ccc(C#N)cc2)c(C(=O)NC2CCN(C(=O)CC[N+](C)(C)C)CC2)c(=O)n1-c1cccc(C(F)(F)F)c1 [Example 63, 3-(4-{[2′-(4-Cyano-phenyl)-2-methyl-5-oxo-1-(3-trifluoromethyl-phenyl)-2,5-dihydro-1H,2′H-[3,3′]bipyrazolyl-4-carbonyl]-amino}-piperidin-1-yl)-3-oxo-propyl]-trimethyl-ammonium benzene sulphonate] | > 9.00
18 | Cn1c(-c2ccnn2-c2ccc(C#N)cc2)c(C(=O)NC2(C)CCN(C(=O)C[N+](C)(C)C)CC2)c(=O)n1-c1cccc(C(F)(F)F)c1 [Example 64, [2-(4-{[2′-(4-Cyano-phenyl)-2-methyl-5-oxo-1-(3-trifluoromethyl-phenyl)-2,5-dihydro-1H,2′H-[3,3′]bipyrazolyl-4-carbonyl]-amino}-4-methyl-piperidin-1-yl)-2-oxo-ethyl]-trimethyl-ammonium benzene sulphonate] | > 9.00
19 | Cn1c(-c2ccnn2-c2ccc(C#N)cc2)c(C(=O)N[C@H]2CC[C@H](C(=O)OCC[N+](C)(C)C)CC2)c(=O)n1-c1cccc(C(F)(F)F)c1 [Example 65, [2-(Trans-4-{[2′-(4-cyano-phenyl)-2-methyl-5-oxo-1-(3-trifluoromethyl-phenyl)-2,5-dihydro-1H,2′H-[3,3′]bipyrazolyl-4-carbonyl]-amino}-cyclohexanecarbonyloxy)-ethyl]-trimethyl-ammonium benzene sulphonate] | > 9.00
